Assays:
[1] = system: PfCDPK1, PfPK6, PfCK2, PfGSK3, PfCLK1, Pfmap2, PfPK7, PfNek2, PfNek4, FIKK4.2, FIKK10.2, PfCK1, PfPK5; assay: Thermal Shift Assay on recombinant Pf kinases; type: binding, P. falciparum; conditions: 2 µM kinase, 5 molar excess of compound
[2] = system: P. falciparum; assay: EC50 listed in S2 Table Metabolomics (used to set the concentration tested); type: cell-based; conditions: Plasmodium falciparum; EC50 used for Factor_XEC50 in metabolomics; read-out: EC50_nM
[3] = system: P. falciparum M1 aminopeptidase; design: method as in ref [23] (a number printed in a supplementary file, which may have a reference list of its own: not looked up in the article's list); conditions: ref [23]; cited from earlier work
[4] = system: P. falciparum 3D7 trophozoites; assay: Metabolomic fingerprint profiling LC-MS; type: cell-based, Plasmodium falciparum; design: UDP-D-glucose / ADP-D-glucose: unit not given here; conditions: for Acetyllysine / N-acetyl-L-ornithine / N-carbamoyl-L-aspartate / NADPH / dAMP / dCMP / dTDP / dTMP / dTTP / dihydroorotate / orotate / DLH / DLS/SDL/SID / PD / PEE / PVNF / 3-phosphoglycerate / ADP-D-glucose / ATP / CDP / D-sedoheptulose-1/7-phosphate / FAD / GMP / NAD+ / NADP+ / Octoluse Bisphosphate / Pyroglutamic acid / UDP-D-glucose / UDP-D-glucuronate / UDP-N-acetyl-glucosamine / UDP / UMP / UTP / a-ketoglutarate / citrate/isocitrate / cytidine / dATP / dGMP/AMP / fumarate / glucose-1/6-phosphate / glycerate / guanine / guanosine / hypoxanthine / indole / inosine / nicotinate / ornithine / phosphoenolpyruvate / pyruvate / ribose-phosphate / sarcosine/alanine / sn-glycerol-3-phosphate / succinate/methylmalonic acid / uridine / xanthosine: S2 Table Metabolomics; for Acetyllysine: metabolite Acetyllysine; for N-acetyl-L-ornithine: metabolite N-acetyl-L-ornithine; for N-carbamoyl-L-aspartate: metabolite N-carbamoyl-L-aspartate; for NADPH: metabolite NADPH; for dAMP: metabolite dAMP; for dCMP: metabolite dCMP; for dTDP: metabolite dTDP; for dTMP: metabolite dTMP; for dTTP: metabolite dTTP; for dihydroorotate: metabolite dihydroorotate; for orotate: metabolite orotate; for DLH: peptide DLH; for DLS/SDL/SID: peptide DLS/SDL/SID; for PD: peptide PD; for PEE: peptide PEE; for PVNF: peptide PVNF; for 3-phosphoglycerate: metabolite 3-phosphoglycerate; for ADP-D-glucose: metabolite ADP-D-glucose; for ATP: metabolite ATP; for CDP: metabolite CDP; for CDP / D-sedoheptulose-1/7-phosphate / GMP / Octoluse Bisphosphate / UDP / UMP / UTP / citrate/isocitrate / dGMP/AMP / fumarate / glucose-1/6-phosphate / glycerate / guanine / guanosine / inosine / pyruvate / sarcosine/alanine / succinate/methylmalonic acid / uridine / xanthosine: change in metabolite level after compound treatment; for D-sedoheptulose-1/7-phosphate: metabolite D-sedoheptulose-1/7-phosphate; for FAD: metabolite FAD; for GMP: metabolite GMP; for NAD+: metabolite NAD+; for NADP+: metabolite NADP+; for Octoluse Bisphosphate: metabolite Octoluse Bisphosphate; for Pyroglutamic acid: metabolite Pyroglutamic acid; for UDP-D-glucose: metabolite UDP-D-glucose; for UDP-D-glucuronate: metabolite UDP-D-glucuronate; for UDP-N-acetyl-glucosamine: metabolite UDP-N-acetyl-glucosamine; for UDP: metabolite UDP; for UMP: metabolite UMP; for UTP: metabolite UTP; for a-ketoglutarate: metabolite a-ketoglutarate; for citrate/isocitrate: metabolite citrate/isocitrate; for cytidine: metabolite cytidine; for dATP: metabolite dATP; for dGMP/AMP: metabolite dGMP/AMP; for fumarate: metabolite fumarate; for glucose-1/6-phosphate: metabolite glucose-1/6-phosphate; for glycerate: metabolite glycerate; for guanine: metabolite guanine; for guanosine: metabolite guanosine; for hypoxanthine: metabolite hypoxanthine; for indole: metabolite indole; for inosine: metabolite inosine; for 2_3-Diphosphoglyceric acid / 4-phosphopantothenate / 6-phospho-D-gluconate / FMN / IMP / Pyrophosphate / Sedoheptoluse bisphosphate / cyclic-AMP / glutathione disulfide / lactate / myo-inositol: metabolite level change after treatment; for nicotinate: metabolite nicotinate; for ornithine: metabolite ornithine; for phosphoenolpyruvate: metabolite phosphoenolpyruvate; for pyruvate: metabolite pyruvate; for ribose-phosphate: metabolite ribose-phosphate; for sarcosine/alanine: metabolite sarcosine/alanine; for sn-glycerol-3-phosphate: metabolite sn-glycerol-3-phosphate; for succinate/methylmalonic acid: metabolite succinate/methylmalonic acid; for uridine: metabolite uridine; for xanthosine: metabolite xanthosine
[5] = system: P. falciparum M17 aminopeptidase; design: method as in ref [23] (a number printed in a supplementary file, which may have a reference list of its own: not looked up in the article's list); conditions: ref [23]; cited from earlier work
[6] = system: T. cruzi Tulahuen; conditions: ref [84]; read-out: Trypanosoma cruzi Tulahuen intracellular amastigotes in MRC5 cell line EC50; cited from earlier work
[7] = system: Atg8-Atg3; design: method as in ref [38] (a number printed in a supplementary file, which may have a reference list of its own: not looked up in the article's list); conditions: ref [38]; cited from earlier work

## Cc1cccc(-n2ncc3c(=O)[nH]c(-n4nc(C)cc4NC(=O)c4cc5ccccc5o4)nc32)c1 [MMV403679]
[1]
  thermal shift (ΔTm): approximately 2 °C

## c1ccc(Cn2c(N=Nc3c(Nc4ccccc4)ccc4ccccc34)nc3ccccc32)cc1 [MMV666023]
[2]
  EC50: 36.8 nM
[3]
  inhibition of M1 in words: moderate competitive inhibitors
[4]
  Acetyllysine: 0.5853
  N-acetyl-L-ornithine: 0.306
  N-carbamoyl-L-aspartate: 1.052
  NADPH: -0.03386
  dAMP: 0.6013
  dCMP: -0.4205
  dTDP: 0.3507
  dTMP: 0.8714
  dTTP: -0.2342
  dihydroorotate: 1.31
  orotate: -0.6227
  DLH: -0.403
  DLS/SDL/SID: -0.4178
  PD: 0.5075
  PEE: 0.08891
  PVNF: -0.6731
  3-phosphoglycerate: 0.03204
  ADP-D-glucose: -0.0135
  ATP: -0.2499
  CDP: 0.1136
  D-sedoheptulose-1/7-phosphate: 0.2353
  FAD: 0.06401
  GMP: -0.6431
  NAD+: 0.6404
  NADP+: -0.009365
  Octoluse Bisphosphate: -0.1419
  Pyroglutamic acid: -0.07348
  UDP-D-glucose: 0.05216
  UDP-D-glucuronate: -0.02666
  UDP-N-acetyl-glucosamine: 0.05509
  UDP: 0.01697
  UMP: -0.4292
  UTP: -0.424
  a-ketoglutarate: -0.06383
  citrate/isocitrate: 0.04119
  cytidine: 0.02473
  dATP: 0.1105
  dGMP/AMP: 0.2165
  fumarate: 0.9246
  glucose-1/6-phosphate: -0.4138
  glycerate: 0.03697
  guanine: -0.03399
  guanosine: -0.2347
  hypoxanthine: -0.04929
  indole: 0.02614
  inosine: -0.0248
  2_3-Diphosphoglyceric acid: 0.0759
  4-phosphopantothenate: 0.08574
  6-phospho-D-gluconate: 0.115
  FMN: -0.1537
  IMP: 0.4441
  Pyrophosphate: 0.2082
  Sedoheptoluse bisphosphate: 0.1996
  cyclic-AMP: 0.01699
  glutathione disulfide: 0.1273
  lactate: -0.7178
  myo-inositol: -0.07069
  nicotinate: 0.08369
  ornithine: 0.4536
  phosphoenolpyruvate: -0.0645
  pyruvate: -0.159
  ribose-phosphate: -0.0332
  sarcosine/alanine: -0.02978
  sn-glycerol-3-phosphate: -0.2072
  succinate/methylmalonic acid: 0.009689
  uridine: -0.07701
  xanthosine: -0.07995
[5]
  inhibition of M17 in words: moderate competitive inhibitors

## COc1cc(-c2nc(-c3ccccc3)c(-c3ccccc3)[nH]2)cc(OC)c1O [MMV020750]
[3]
  inhibition of M1 in words: moderate competitive inhibitors
[5]
  inhibition of M17 in words: moderate competitive inhibitors

## O=C(Nc1ccc(Cl)c(Cl)c1)Nc1ccc(Cl)c(Cl)c1 [MMV665852]
[1]
  thermal shift (ΔTm): approximately 2 °C

## Cc1ccc(Nc2nc(-c3ccccn3)cs2)cc1 [MMV007907]
[6]
  EC50: 281 nM
[7]
  PPI inhibitors of Atg8-Atg3 interaction: PPI inhibitors
[2]
  EC50: 350 nM
[4]
  Acetyllysine: -0.3916
  N-acetyl-L-ornithine: -0.2705
  N-carbamoyl-L-aspartate: 0.4477
  NADPH: 1.503
  dAMP: -0.05008
  dCMP: -0.3338
  dTDP: -0.4245
  dTMP: -0.5337
  dTTP: 0.04887
  dihydroorotate: 0.6541
  orotate: 0.3803
  DLH: -0.1443
  DLS/SDL/SID: -0.03559
  PD: -0.7075
  PEE: -0.4235
  PVNF: 0.2287
  3-phosphoglycerate: 0.2283
  ADP-D-glucose: 0.03116
  ATP: 0.08371
  CDP: -0.4596
  D-sedoheptulose-1/7-phosphate: -0.2275
  FAD: 0.1798
  GMP: 0.08425
  NAD+: 0.05427
  NADP+: -0.07684
  Octoluse Bisphosphate: -0.09051
  Pyroglutamic acid: 0.2079
  UDP-D-glucose: -0.006173
  UDP-D-glucuronate: 0.1137
  UDP-N-acetyl-glucosamine: 0.001514
  UDP: -0.4364
  UMP: -0.7518
  UTP: 0.01959
  a-ketoglutarate: 0.135
  citrate/isocitrate: 0.264
  cytidine: 0.5859
  dATP: -0.01819
  dGMP/AMP: -0.2513
  fumarate: -0.275
  glucose-1/6-phosphate: -0.0724
  glycerate: 0.1576
  guanine: 0.3676
  guanosine: 0.05893
  hypoxanthine: 0.3977
  indole: 0.3227
  inosine: 0.344
  2_3-Diphosphoglyceric acid: -0.02223
  4-phosphopantothenate: 0.1153
  6-phospho-D-gluconate: 0.05128
  FMN: 0.1654
  IMP: -0.204
  Pyrophosphate: 0.1304
  Sedoheptoluse bisphosphate: -0.1099
  cyclic-AMP: 0.1921
  glutathione disulfide: -0.02789
  lactate: 0.5292
  myo-inositol: 0.004909
  nicotinate: 0.3366
  ornithine: 0.4059
  phosphoenolpyruvate: 0.0562
  pyruvate: 0.2612
  ribose-phosphate: -0.06101
  sarcosine/alanine: 0.3466
  sn-glycerol-3-phosphate: 0.2394
  succinate/methylmalonic acid: 0.03717
  uridine: 0.4023
  xanthosine: -0.2403

Reference: paper PMC4965013, “Open Source Drug Discovery with the Malaria Box Compound Collection for Neglected Diseases and Beyond” (PLoS Pathogens, 2016)
